This is an account of results in article PMC8706783 (Pharmaceutics, 2021).

One data set concerns the target CYP2C19 (Homo sapiens, UniProt P33261). Put plainly: Enzyme inhibition assay, CYP2C19. The following applies: HLM; CYP2C19 S-mephenytoin 4′-hydroxylation.
A further data set has as its target T1, UGT1A7 (Homo sapiens, UniProt Q9HAW7).
T1 sequence (Q9HAW7 26-530): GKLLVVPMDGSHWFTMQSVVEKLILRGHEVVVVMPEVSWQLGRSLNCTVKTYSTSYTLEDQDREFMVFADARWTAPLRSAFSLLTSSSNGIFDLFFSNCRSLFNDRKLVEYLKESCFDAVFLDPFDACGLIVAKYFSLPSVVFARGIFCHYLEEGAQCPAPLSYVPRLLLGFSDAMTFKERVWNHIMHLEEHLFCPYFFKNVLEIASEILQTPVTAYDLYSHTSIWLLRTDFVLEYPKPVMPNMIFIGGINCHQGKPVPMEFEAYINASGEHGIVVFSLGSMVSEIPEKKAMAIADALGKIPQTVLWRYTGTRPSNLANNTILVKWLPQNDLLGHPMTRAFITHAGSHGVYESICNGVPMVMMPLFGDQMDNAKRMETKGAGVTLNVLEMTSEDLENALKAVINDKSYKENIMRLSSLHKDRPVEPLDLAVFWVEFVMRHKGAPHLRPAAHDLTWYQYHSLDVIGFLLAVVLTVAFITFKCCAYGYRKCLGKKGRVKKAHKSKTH
Put plainly: Enzyme inhibition assay, UGT1A7.

The target in the next data set is T2, UGT1A8 (Homo sapiens, UniProt Q9HAW9).
T2 sequence (Q9HAW9 26-530): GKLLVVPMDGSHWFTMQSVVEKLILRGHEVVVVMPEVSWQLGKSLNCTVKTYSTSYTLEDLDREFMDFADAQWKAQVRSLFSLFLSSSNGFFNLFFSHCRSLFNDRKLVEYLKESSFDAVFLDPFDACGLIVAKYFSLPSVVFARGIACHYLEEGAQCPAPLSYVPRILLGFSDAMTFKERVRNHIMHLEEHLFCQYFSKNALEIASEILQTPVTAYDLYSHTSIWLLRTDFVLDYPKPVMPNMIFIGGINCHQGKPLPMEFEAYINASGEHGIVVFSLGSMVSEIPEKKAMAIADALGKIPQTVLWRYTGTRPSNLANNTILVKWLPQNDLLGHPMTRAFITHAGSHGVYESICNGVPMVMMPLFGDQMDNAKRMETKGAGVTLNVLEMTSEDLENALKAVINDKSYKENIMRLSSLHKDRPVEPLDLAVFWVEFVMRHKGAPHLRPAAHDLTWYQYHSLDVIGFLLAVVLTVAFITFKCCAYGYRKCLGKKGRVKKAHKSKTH
Put plainly: Enzyme inhibition assay, UGT1A8.

A further data set deals with T3, UGT1A1 (Homo sapiens, UniProt P22309).
T3 construct: from tissue
T3 sequence (P22309 26-533): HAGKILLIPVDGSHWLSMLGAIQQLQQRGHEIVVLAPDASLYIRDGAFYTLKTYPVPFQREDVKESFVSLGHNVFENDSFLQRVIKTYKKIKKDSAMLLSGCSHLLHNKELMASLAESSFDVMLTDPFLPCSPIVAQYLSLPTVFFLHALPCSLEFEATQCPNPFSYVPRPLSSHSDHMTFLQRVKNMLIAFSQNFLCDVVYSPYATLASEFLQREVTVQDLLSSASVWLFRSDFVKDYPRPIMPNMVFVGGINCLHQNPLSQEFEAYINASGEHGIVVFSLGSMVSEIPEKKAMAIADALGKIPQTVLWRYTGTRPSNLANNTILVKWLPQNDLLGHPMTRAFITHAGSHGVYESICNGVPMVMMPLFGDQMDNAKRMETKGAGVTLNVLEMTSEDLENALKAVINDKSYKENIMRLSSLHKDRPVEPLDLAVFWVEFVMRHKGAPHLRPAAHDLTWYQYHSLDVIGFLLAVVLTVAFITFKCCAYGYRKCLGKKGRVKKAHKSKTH
The data set can be described thus: Enzyme inhibition assay, UGT1A1. The data set is classed as in vitro ADME. The following applies: HLM; UGT1A1 SN38 glucuronidation; read-out: IC50.

The target of a further data set is T4, UGT2B7 (Homo sapiens, UniProt P16662).
T4 sequence (P16662 24-529): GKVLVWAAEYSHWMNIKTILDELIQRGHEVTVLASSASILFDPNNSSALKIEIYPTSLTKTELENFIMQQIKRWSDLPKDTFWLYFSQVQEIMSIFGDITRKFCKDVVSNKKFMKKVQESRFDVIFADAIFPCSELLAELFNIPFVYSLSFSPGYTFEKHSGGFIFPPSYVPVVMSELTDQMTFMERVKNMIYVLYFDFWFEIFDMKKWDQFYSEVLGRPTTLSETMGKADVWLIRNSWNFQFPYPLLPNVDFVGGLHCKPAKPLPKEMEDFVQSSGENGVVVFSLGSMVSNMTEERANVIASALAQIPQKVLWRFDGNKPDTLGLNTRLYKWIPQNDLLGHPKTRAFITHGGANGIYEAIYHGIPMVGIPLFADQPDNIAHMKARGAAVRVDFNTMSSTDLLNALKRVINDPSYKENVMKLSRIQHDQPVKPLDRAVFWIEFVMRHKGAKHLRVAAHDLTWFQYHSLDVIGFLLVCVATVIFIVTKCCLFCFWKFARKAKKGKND
The data set can be described thus: Enzyme inhibition assay, UGT2B7. The data set is classed as in vitro ADME. The following applies: HLM; UGT2B7 zidovudine glucuronidation. On the set-up: from tissue.

The target in another data set is T5, CYP1A1 (Homo sapiens, UniProt P04798).
T5 sequence (P04798 1-512): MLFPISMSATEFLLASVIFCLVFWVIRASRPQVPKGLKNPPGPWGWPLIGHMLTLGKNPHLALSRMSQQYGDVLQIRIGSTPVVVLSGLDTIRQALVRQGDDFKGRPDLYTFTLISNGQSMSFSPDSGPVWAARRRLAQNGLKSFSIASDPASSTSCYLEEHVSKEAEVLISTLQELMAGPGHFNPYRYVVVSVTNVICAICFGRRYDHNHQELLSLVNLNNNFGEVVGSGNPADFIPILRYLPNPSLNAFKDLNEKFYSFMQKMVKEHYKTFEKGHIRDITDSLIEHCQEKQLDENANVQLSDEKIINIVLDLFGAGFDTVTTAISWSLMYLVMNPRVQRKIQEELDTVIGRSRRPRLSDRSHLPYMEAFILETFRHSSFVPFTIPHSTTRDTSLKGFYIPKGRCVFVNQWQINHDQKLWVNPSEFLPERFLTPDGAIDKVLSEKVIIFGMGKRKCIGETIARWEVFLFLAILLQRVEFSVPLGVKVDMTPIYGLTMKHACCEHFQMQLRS
The data set can be described thus: Enzyme inhibition assay, CYP1A1. The class given is in vitro ADME. As to conditions: Recombinant CYP1A1; phenacetin-O-deethylation. Set-up: purchased Xenotech LLC.

For the next data set, the target named is T6, UGT1A4 (Homo sapiens, UniProt P22310).
T6 sequence (P22310 29-534): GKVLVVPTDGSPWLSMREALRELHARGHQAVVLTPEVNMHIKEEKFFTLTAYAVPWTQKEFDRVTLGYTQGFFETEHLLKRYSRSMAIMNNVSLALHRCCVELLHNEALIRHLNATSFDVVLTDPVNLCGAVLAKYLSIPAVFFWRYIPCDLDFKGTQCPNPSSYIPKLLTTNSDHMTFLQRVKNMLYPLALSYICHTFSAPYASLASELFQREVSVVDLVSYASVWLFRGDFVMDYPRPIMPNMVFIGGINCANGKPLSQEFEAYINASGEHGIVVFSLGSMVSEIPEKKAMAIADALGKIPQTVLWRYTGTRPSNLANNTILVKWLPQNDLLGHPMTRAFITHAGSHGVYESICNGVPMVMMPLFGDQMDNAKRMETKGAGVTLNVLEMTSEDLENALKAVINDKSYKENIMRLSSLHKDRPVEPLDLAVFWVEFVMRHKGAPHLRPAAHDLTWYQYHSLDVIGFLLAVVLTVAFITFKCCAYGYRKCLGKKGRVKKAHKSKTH
The data set can be described thus: Enzyme inhibition assay, UGT1A4.

The nature of data set [1]: Reaction phenotyping, HLM with NADPH. The data set is classed as in vitro ADME, human. The following applies: human, human liver microsomes, pH 7.4; HLM (Phase 1), Midazolam (1 µM); read-out: Known Substrate (% Remaining at 60 min).
The next data set addresses CYP3A4 (Homo sapiens, UniProt P08684). The data set can be described thus: Reaction phenotyping, rCYP3A4. As to conditions: recombinant enzyme, pH 7.4.
Another data set has as its target T7, UGT1A9 (Homo sapiens, UniProt O60656).
T7 sequence (O60656 26-530): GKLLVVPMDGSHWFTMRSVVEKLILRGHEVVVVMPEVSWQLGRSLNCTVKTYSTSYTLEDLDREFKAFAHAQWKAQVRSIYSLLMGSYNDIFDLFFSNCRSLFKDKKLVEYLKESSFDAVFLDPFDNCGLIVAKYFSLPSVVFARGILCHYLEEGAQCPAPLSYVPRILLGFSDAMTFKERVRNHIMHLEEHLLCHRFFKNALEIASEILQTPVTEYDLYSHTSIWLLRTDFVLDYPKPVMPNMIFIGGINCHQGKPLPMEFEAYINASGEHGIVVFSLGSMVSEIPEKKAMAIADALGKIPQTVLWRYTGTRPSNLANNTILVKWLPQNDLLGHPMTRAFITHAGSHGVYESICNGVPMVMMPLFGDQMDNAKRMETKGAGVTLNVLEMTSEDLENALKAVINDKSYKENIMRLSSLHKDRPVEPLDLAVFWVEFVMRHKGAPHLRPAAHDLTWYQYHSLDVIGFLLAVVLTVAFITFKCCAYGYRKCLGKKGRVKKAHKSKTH
The data set can be described thus: Enzyme inhibition assay, UGT1A9. The data set is classed as in vitro ADME. Set-up: from tissue. The following applies: HLM; UGT1A9 mycophenolic acid glucuronidation.

Another data set concerns CYP1A2. Put plainly: Enzyme induction assay, CYP1A2 activity in primary human hepatocytes. The class given is in vitro ADME. As to conditions: plated cryopreserved primary human hepatocytes, O-deethylation.
The next data set deals with CYP2B6. The data set can be described thus: Enzyme induction assay, CYP2B6 activity in primary human hepatocytes. As to conditions: CYP2B6 bupropion hydroxylation, DPV 303 nM, phenobarbital 1 mM.
In the next data set the target is rUGT1A1 (Homo sapiens, UniProt P22309). Put plainly: Reaction phenotyping, rUGT1A1. The following applies: rUGT1A1, SN38 (0.5 µM).

CYP2C19, sequence (P33261 whole entry): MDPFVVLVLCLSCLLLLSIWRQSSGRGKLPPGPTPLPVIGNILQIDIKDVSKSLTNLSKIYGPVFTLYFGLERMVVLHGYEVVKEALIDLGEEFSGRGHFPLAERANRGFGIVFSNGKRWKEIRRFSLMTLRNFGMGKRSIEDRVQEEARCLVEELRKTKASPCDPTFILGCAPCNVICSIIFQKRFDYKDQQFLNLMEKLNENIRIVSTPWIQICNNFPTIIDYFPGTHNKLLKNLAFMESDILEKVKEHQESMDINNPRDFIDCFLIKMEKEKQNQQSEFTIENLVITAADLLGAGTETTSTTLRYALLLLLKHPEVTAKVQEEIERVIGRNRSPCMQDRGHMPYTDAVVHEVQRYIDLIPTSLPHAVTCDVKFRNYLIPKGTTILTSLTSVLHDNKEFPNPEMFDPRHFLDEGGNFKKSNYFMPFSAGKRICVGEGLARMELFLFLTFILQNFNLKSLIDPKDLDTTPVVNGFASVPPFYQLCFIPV
CYP3A4, sequence (P08684 whole entry): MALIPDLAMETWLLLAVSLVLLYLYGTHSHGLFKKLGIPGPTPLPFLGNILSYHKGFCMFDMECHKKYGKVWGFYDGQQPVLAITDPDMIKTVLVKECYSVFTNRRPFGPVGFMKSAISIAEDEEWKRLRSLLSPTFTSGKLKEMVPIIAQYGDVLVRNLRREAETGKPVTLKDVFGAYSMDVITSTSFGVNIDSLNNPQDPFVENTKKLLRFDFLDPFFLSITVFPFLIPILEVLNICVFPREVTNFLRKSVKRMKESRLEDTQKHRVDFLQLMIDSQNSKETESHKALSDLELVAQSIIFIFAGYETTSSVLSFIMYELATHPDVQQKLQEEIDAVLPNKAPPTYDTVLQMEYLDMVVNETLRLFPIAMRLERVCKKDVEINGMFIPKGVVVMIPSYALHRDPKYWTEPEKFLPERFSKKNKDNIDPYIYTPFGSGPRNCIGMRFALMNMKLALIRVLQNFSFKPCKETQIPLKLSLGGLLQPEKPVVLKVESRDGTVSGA

Turning to `CCC1(c2ccccc2)C(=O)NC(=O)N(Cc2ccccc2)C1=O` (single isomer, unassigned; (-)) [(-)-N-3-benzyl-phenobarbital], the IC50 against CYP2C19 was 148 nM. Regarding `O=c1cc(-c2ccc(O)c(-c3c(O)cc(O)c4c(=O)cc(-c5ccc(O)cc5)oc34)c2)oc2cc(O)cc(O)c12` [Amentoflavone], the IC50 was 46.1 nM against UGT1A7 and 5570 nM against UGT1A8. As for `COC(=O)N[C@H](C(=O)N[C@@H](Cc1ccccc1)[C@@H](O)CN(Cc1ccc(-c2ccccn2)cc1)NC(=O)[C@@H](NC(=O)OC)C(C)(C)C)C(C)(C)C` [Atazanavir], the IC50 at UGT1A1 came out at 110 nM. Compound `OC(Cn1cncn1)(Cn1cncn1)c1ccc(F)cc1F` [Fluconazole] returned an IC50 against UGT2B7 of 712000 nM. For the compound `Cc1nc2c([nH]1)c(=O)n(C)c(=O)n2Cc1ccco1` [Furafylline], the IC50 at CYP1A1 worked out at 4760 nM.

For the compound `C[C@@H]1CC[C@@]2(OC1)O[C@H]1C[C@H]3[C@@H]4CC[C@H]5C[C@@H](O)CC[C@]5(C)[C@H]4CC(=O)[C@]3(C)[C@H]1[C@@H]2C` [Hecogenin], the IC50 at UGT1A4 stood at 960 nM. Regarding `Cc1ncc2n1-c1ccc(Cl)cc1C(c1ccccc1F)=NC2` [Midazolam], the share remaining at 1 h in data set [1] was determined as 0%. Further, the share remaining at 1 h, 1 µM at CYP3A4 was 4.02%.

At UGT1A9, `O=C(O)c1cccnc1Nc1cccc(C(F)(F)F)c1` [Niflumic acid] gave an IC50 of 150 nM. Consider `COc1ccc2[nH]c([S+]([O-])Cc3ncc(C)c(OC)c3C)nc2c1` (centres unmarked) [Omeprazole], for which the fold induction at 72 h, 303 nM was 14 ± 2.43 with CYP1A2 (donor HU2036, probe phenacetin (100 µM)); 35.5 ± 2.03 in the data set on CYP1A2 (donor HU2068, probe phenacetin (100 µM)); 32.7 ± 6.67 in the data set with CYP1A2 (donor HU8373, probe phenacetin (100 µM)).

Regarding `CCC1(c2ccccc2)C(=O)NC(=O)NC1=O` [Phenobarbital], the fold induction at 72 h, 303 nM in the data set on CYP2B6 (donor HU2036, over negative control) stood at 7.63 ± 0.82; with CYP2B6 (donor HU2068, over negative control), 6.43 ± 1.02; in the data set with CYP2B6 (donor HU8373, over negative control), 10.7 ± 0.61. For the compound `CCc1c2c(nc3ccc(O)cc13)-c1cc3c(c(=O)n1C2)COC(=O)[C@]3(O)CC` [SN38], the “Known Substrate (% Remaining at 60 min)” value at rUGT1A1 is given as “SN38 (74.87) %”.
